Laboratory results reported in patent US20210369615A1, “SOLID ORAL FORMULATIONS OF AMPHOTERICIN B” (iCo Therapeutics Inc., priority 2018, published 2021).
“And” between values parts separate entries of the source, which are not always exact repeats. Identical values can stand only once.

Assay: Phase 1 single dose escalation pharmacokinetic study, Amphotericin B in human plasma
Format: in vivo
Details: for Amphotericin B concentration: 800 mg dose
Method: A phase 1, randomized, double-blind, placebo-controlled, single dose escalation study was performed to evaluate the pharmacokinetic parameters after administration of a single dose of Formula 1A. 100 mg (FIG. 10A), 200 mg (FIG. 10B), 400 mg (FIG. 10C) and 800 mg (FIG. 10D) doses were investigated in this study.
For each dose, AmpB or a placebo was administered, and blood samples were obtained pre-dose, and post-dosing at 0.5 hr, 1 hr, 2 hr, 3 hr, 4 hr, 6 hr, 8 hr, 10 hr, 12 hr, 24 hr, 36 hr, 48 hr, 60 hr, 72 hr, 144 hr, and 192 hr. Pharmacokinetic analysis was performed using Phoenix™ WinNonlin® (Pharsight Corporation). Doses and sampling times were entered as provided by the sponsor. Dose normalised parameters, and descriptive statistics were calculated using Phoenix™ WinNonlin®.
Where Ct is the last measurable concentration and Kel is the elimination rate constant estimated using log-linear regression during the terminal elimination phase. • t½: Elimination half-life, determined by ln(2)/Kel • CL/f: Observed Systemic clearance, calculated as dose/AUC • Vz: Observed Volume of distribution during the terminal phase, calculated as CL/Kel

[1] = single 100 mg dose (Formula 1A), Geometric Mean, N 6
[2] = single 100 mg dose (Formula 1A), Mean, N 6
[3] = single 100 mg dose (Formula 1A), Median, N 6
[4] = single 100 mg dose (Formula 1A), individual subjects A, B, C, D, F, H
[5] = single 200 mg dose (Formula 1A), Geometric Mean, N 6
[6] = single 200 mg dose (Formula 1A), Mean, N 6
[7] = single 200 mg dose (Formula 1A), Median, N 6
[8] = single 200 mg dose (Formula 1A), individual subjects I, 3, K, M, N, P
[9] = single 400 mg dose (Formula 1A), Geometric Mean, N 6
[10] = single 400 mg dose (Formula 1A), Mean, N 6
[11] = single 400 mg dose (Formula 1A), Median, N 6
[12] = single 400 mg dose (Formula 1A), individual subjects R, S, T, U, V, W

C[C@@H]1[C@H](O)[C@@H](C)/C=C/C=C/C=C/C=C/C=C/C=C/C=C/[C@H](O[C@@H]2O[C@H](C)[C@@H](O)[C@H](N)[C@@H]2O)C[C@@H]2O[C@](O)(C[C@@H](O)C[C@@H](O)[C@H](O)CC[C@@H](O)C[C@@H](O)CC(=O)O[C@H]1C)C[C@H](O)[C@H]2C(=O)O [Amphotericin B]
Amphotericin B concentration (nominal hour 0.5, individual subjects): BQL
Amphotericin B concentration (nominal hour 1, individual subjects): 0.791 ng/mL and BQL (5×)
Amphotericin B concentration (nominal hour 2, individual subjects): 7.683 ng/mL and 8.234 ng/mL and 2.414 ng/mL and 5.164 ng/mL and 3.206 ng/mL and 4.175 ng/mL
Amphotericin B concentration (nominal hour 4, individual subjects): 16.397 ng/mL and 28.318 ng/mL and 18.814 ng/mL and 17.942 ng/mL and 23.486 ng/mL and 20.176 ng/mL
Amphotericin B concentration (nominal hour 6, individual subjects): 29.902 ng/mL and 40.067 ng/mL and 30.628 ng/mL and 24.140 ng/mL and 33.962 ng/mL and 31.375 ng/mL
Amphotericin B concentration (nominal hour 8, individual subjects): 22.535 ng/mL and 31.543 ng/mL and 30.838 ng/mL and 27.279 ng/mL and 39.722 ng/mL and 22.816 ng/mL
Amphotericin B concentration (nominal hour 10, individual subjects): 21.595 ng/mL and 29.990 ng/mL and 25.996 ng/mL and 32.914 ng/mL and 42.805 ng/mL and 22.226 ng/mL
Amphotericin B concentration (nominal hour 12, individual subjects): 21.001 ng/mL and 31.865 ng/mL and 22.810 ng/mL and 27.866 ng/mL and 40.021 ng/mL and 21.390 ng/mL
Amphotericin B concentration (nominal hour 24, individual subjects): 16.218 ng/mL and 14.674 ng/mL and 23.607 ng/mL and 14.816 ng/mL and 19.124 ng/mL and 26.064 ng/mL
Amphotericin B concentration (nominal hour 36, individual subjects): 10.661 ng/mL and 16.074 ng/mL and 13.715 ng/mL and 9.365 ng/mL and 12.504 ng/mL and 19.218 ng/mL
Amphotericin B concentration (nominal hour 48, individual subjects): 6.472 ng/mL and 12.880 ng/mL and 12.291 ng/mL and 7.395 ng/mL and 8.947 ng/mL and 13.166 ng/mL
Amphotericin B concentration (nominal hour 63, individual subjects): 6.398 ng/mL and 10.642 ng/mL and 7.859 ng/mL and 3.935 ng/mL and 6.865 ng/mL and 9.972 ng/mL
Amphotericin B concentration (nominal hour 72, individual subjects): 5.044 ng/mL and 10.165 ng/mL and 6.793 ng/mL and 2.412 ng/mL and 3.808 ng/mL and 8.297 ng/mL
Amphotericin B concentration (nominal hour 144, individual subjects): 0.539 ng/mL and 2.254 ng/mL and 1.380 ng/mL and 0.329 ng/mL and 0.518 ng/mL and 1.905 ng/mL
Amphotericin B concentration (nominal hour 192, individual subjects): BQL (3×) and 0.726 ng/mL and 0.132 ng/mL and 0.243 ng/mL
Amphotericin B concentration (pre-dose, individual subjects): BQL
% AUCexp [1]: 16.37%
AUCO-inf [1]: 1155.07 ng·h/mL
AUCO-t [1]: 865.75 ng·h/mL
CL/F [1]: 86574.82 mL/h
Cmax [1]: 29.45 ng/mL
Kel [1]: 0.02 h⁻¹
Tmax [1]: 6.00 h
T½ [1]: 28.42 h
V/F [1]: 3549117.10 mL
% AUCexp [2]: 23.01%
AUCO-inf [2]: 1329.45 ng·h/mL
AUCO-t [2]: 912.51 ng·h/mL
CL/F [2]: 96064.72 mL/h
Cmax [2]: 30.22 ng/mL
Kel [2]: 0.03 h⁻¹
Tmax [2]: 6.00 h
T½ [2]: 31.80 h
V/F [2]: 3656853.27 mL
% AUCexp [3]: 16.74%
AUCO-inf [3]: 1029.80 ng·h/mL
AUCO-t [3]: 759.65 ng·h/mL
CL/F [3]: 102549.85 mL/h
Cmax [3]: 28.02 ng/mL
Kel [3]: 0.03 h⁻¹
Tmax [3]: 6.00 h
T½ [3]: 27.27 h
V/F [3]: 3591414.60 mL
% AUCexp [4]: 12.17% and 44.38% and 21.32% and 9.08% and 47.20% and 3.91%
AUCO-inf [4]: 723.90 ng·h/mL and 1362.29 ng·h/mL and 1267.06 ng·h/mL and 788.16 ng·h/mL and 3042.77 ng·h/mL and 792.54 ng·h/mL
AUCO-t [4]: 635.82 ng·h/mL and 757.71 ng·h/mL and 996.95 ng·h/mL and 716.57 ng·h/mL and 1606.43 ng·h/mL and 761.59 ng·h/mL
CL/F [4]: 138140.40 mL/h and 73405.78 mL/h and 78922.85 mL/h and 126877.64 mL/h and 32864.80 mL/h and 126176.85 mL/h
Cmax [4]: 22.66 ng/mL and 24.41 ng/mL and 30.05 ng/mL and 25.98 ng/mL and 43.57 ng/mL and 34.67 ng/mL
Kel [4]: 0.03 1/hr and 0.01 1/hr (2×) and 0.02 1/hr and 0.04 1/hr and 0.05 1/hr
Tmax [4]: 6.00 h
T½ [4]: 22.60 h and 47.37 h and 31.94 h and 19.37 h and 55.13 h and 14.42 h
V/F [4]: 4503070.74 mL and 5016960.70 mL and 3637239.70 mL and 3545589.51 mL and 2613781.85 mL and 2624477.13 mL
% AUCexp [5]: 13.76%
AUCO-inf [5]: 1040.21 ng·h/mL
AUCO-t [5]: 822.65 ng·h/mL
CL/F [5]: 192268.01 mL/h
Cmax [5]: 28.66 ng/mL
Kel [5]: 0.03 h⁻¹
Tmax [5]: 6.29 h
T½ [5]: 25.39 h
V/F [5]: 7043125.41 mL
% AUCexp [6]: 19.01%
AUCO-inf [6]: 1066.59 ng·h/mL
AUCO-t [6]: 856.21 ng·h/mL
CL/F [6]: 197223.58 mL/h
Cmax [6]: 29.70 ng/mL
Kel [6]: 0.03 h⁻¹
Tmax [6]: 6.33 h
T½ [6]: 29.35 h
V/F [6]: 8022007.31 mL
% AUCexp [7]: 15.83%
AUCO-inf [7]: 1061.32 ng·h/mL
AUCO-t [7]: 804.02 ng·h/mL
CL/F [7]: 189651.36 mL/h
Cmax [7]: 28.62 ng/mL
Kel [7]: 0.03 h⁻¹
Tmax [7]: 6.00 h
T½ [7]: 24.59 h
V/F [7]: 7174305.73 mL
% AUCexp [8]: 51.97% and 15.07% and 6.50% and 16.58% and 4.05% and 19.85%
AUCO-inf [8]: 1241.16 ng·h/mL and 1146.01 ng·h/mL and 1438.52 ng·h/mL and 737.08 ng·h/mL and 860.11 ng·h/mL and 976.64 ng·h/mL
AUCO-t [8]: 596.14 ng·h/mL and 973.27 ng·h/mL and 1344.94 ng·h/mL and 614.86 ng·h/mL and 825.30 ng·h/mL and 782.74 ng·h/mL
CL/F [8]: 161138.94 mL/h and 174518.59 mL/h and 139032.26 mL/h and 271340.46 mL/h and 232527.11 mL/h and 204784.12 mL/h
Cmax [8]: 18.77 ng/mL and 27.35 ng/mL and 42.46 ng/mL and 23.41 ng/mL and 36.31 ng/mL and 29.90 ng/mL
Kel [8]: 0.01 1/hr and 0.03 1/hr (3×) and 0.05 1/hr (2×)
Tmax [8]: 6.00 h and 8.00 h
T½ [8]: 68.82 h and 24.69 h and 15.32 h and 24.50 h and 15.26 h and 27.53 h
V/F [8]: 15999011.64 mL and 6215853.68 mL and 3073693.76 mL and 9591266.45 mL and 5119460.58 mL and 8132757.78 mL
% AUCexp [9]: 25.23%
AUCO-inf [9]: 1799.36 ng·h/mL
AUCO-t [9]: 1045.59 ng·h/mL
CL/F [9]: 222300.98 mL/h
Cmax [9]: 28.16 ng/mL
Kel [9]: 0.02 h⁻¹
Tmax [9]: 7.11 h
T½ [9]: 42.43 h
V/F [9]: 13606337.94 mL
% AUCexp [10]: 36.21%
AUCO-inf [10]: 2494.19 ng·h/mL
AUCO-t [10]: 1148.77 ng·h/mL
CL/F [10]: 300584.11 mL/h
Cmax [10]: 29.04 ng/mL
Kel [10]: 0.02 h⁻¹
Tmax [10]: 7.33 h
T½ [10]: 57.04 h
V/F [10]: 15172419.27 mL
% AUCexp [11]: 33.41%
AUCO-inf [11]: 2029.33 ng·h/mL
AUCO-t [11]: 1089.21 ng·h/mL
CL/F [11]: 197696.44 mL/h
Cmax [11]: 28.44 ng/mL
Kel [11]: 0.02 h⁻¹
Tmax [11]: 6.00 h
T½ [11]: 39.03 h
V/F [11]: 12667205.14 mL
% AUCexp [12]: 73.99% and 4.55% and 35.27% and 11.36% and 31.55% and 60.51%
AUCO-inf [12]: 7138.99 ng·h/mL and 981.05 ng·h/mL and 1918.71 ng·h/mL and 520.98 ng·h/mL and 2265.43 ng·h/mL and 2139.96 ng·h/mL
AUCO-t [12]: 1856.79 ng·h/mL and 936.40 ng·h/mL and 1242.03 ng·h/mL and 461.79 ng·h/mL and 1550.60 ng·h/mL and 845.03 ng·h/mL
CL/F [12]: 56030.30 mL/h and 407726.35 mL/h and 208473.83 mL/h and 767787.87 mL/h and 176567.28 mL/h and 186919.05 mL/h
Cmax [12]: 41.12 ng/mL and 26.38 ng/mL and 30.49 ng/mL and 21.86 ng/mL and 34.26 ng/mL and 20.15 ng/mL
Kel [12]: 0.00 1/hr and 0.05 1/hr and 0.02 1/hr (2×) and 0.03 1/hr and 0.01 1/hr
Tmax [12]: 10.00 h and 6.00 h
T½ [12]: 142.05 h and 13.66 h and 46.06 h and 24.18 h and 32.01 h and 84.28 h
V/F [12]: 11482617.37 mL and 8037364.81 mL and 13851792.91 mL and 26779550.10 mL and 8154849.30 mL and 22728341.15 mL
